Data: patent publication US20220041647A1, “ESTRA-1,3,5(10)-TRIENE COMPOUNDS CONDENSED IN POSITION 16(17) WITH A PYRAZOLE RING AS INHIBITORS OF 17-HSD1” (FORENDO PHARMA LTD, priority 2018, published 2022)

Assays:
[1] = Metabolic stability assay, human hepatocyte incubations; assay type: in vitro ADME; details: compound 1 μM, human hepatocytes, 0-60 min at 37° C.; read-out: Human hepatocytes MetStab T½ min
Procedure: Compound stock solutions of the invention were prepared in […]. Final concentration of DMSO was adjusted to 1% in all samples. The in vitro metabolic stability of the compounds of the invention was determined for exemplified compounds using human hepatocyte incubations; study compounds at concentration of 1 μM were incubated 0, 10, 20, 40 and 60 min at 37° C. Samples were collected at all time points and compounds were detected by LC-MS/MS analysis. The percent compound remaining is calculated by comparing the peak area of the parent compound at each time point to time zero. In vitro metabolic stability was determined as half life (T1/2), which was determined by regression analysis of the percent parent disappearance vs. time curve.

[2] = biological target: T1, recombinant human 17β-HSD1 (Homo sapiens, UniProt P14061); experiment: Inhibition of recombinant human 17β-HSD1 (estrone to estradiol conversion, HPLC/radioactivity); assay type: biochemical; details: compound 100 nM; 30 nM estrone, 1 mM NADPH, 30 min RT
T1 construct: made in house; host or cells: Sd9 (Sf9) insect cells, baculovirus (Bac to Bac Expression System)
T1 sequence (P14061 1-328): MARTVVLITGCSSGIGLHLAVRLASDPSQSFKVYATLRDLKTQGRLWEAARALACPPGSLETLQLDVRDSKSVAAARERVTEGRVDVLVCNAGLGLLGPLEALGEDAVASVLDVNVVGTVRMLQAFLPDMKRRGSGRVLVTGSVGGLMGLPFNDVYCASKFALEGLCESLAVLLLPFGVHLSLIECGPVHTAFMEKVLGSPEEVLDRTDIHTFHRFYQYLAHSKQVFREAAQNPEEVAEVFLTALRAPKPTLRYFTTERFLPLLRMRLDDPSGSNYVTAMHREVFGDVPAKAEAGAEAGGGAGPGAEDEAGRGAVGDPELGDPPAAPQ
Outline: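 Microsomal human 17β-HSD1 from Sf9 baculovirus (1 μg/ml) was incubated 30 min at RT in 20 mM KH2PO4 pH 7.4 with 30 nM ^3H-estrone, 1 mM NADPH and inhibitor at 1 μM or 0.1 μM (1% DMSO). Estrone and estradiol were separated by HPLC with radioactivity detection. % inhibition = 100 − % conversion relative to uninhibited control.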

[3] = biological target: T2, recombinant human 17β-HSD2 (Homo sapiens, UniProt P37059); experiment: Inhibition of recombinant human 17β-HSD2 (estradiol to estrone conversion, HPLC/radioactivity); assay type: biochemical; details: compound 1 μM; 50 nM estradiol, 1 mM NADH, 30 min RT
T2 construct: made in house; host or cells: Sd9 (Sf9) insect cells, baculovirus (Bac to Bac Expression System)
T2 sequence (P37059 1-387): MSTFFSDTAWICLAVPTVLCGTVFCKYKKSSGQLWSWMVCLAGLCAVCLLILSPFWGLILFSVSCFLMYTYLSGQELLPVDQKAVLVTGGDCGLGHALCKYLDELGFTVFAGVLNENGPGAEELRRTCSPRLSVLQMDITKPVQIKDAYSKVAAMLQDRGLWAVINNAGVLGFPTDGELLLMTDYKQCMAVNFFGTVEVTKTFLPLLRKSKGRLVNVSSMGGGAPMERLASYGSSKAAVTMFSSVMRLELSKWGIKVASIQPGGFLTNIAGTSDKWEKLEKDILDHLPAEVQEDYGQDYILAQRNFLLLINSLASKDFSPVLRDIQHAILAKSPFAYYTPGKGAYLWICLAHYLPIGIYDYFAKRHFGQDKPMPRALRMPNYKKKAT
Outline: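 Membrane extract of Sf9 cells expressing recombinant human 17β-HSD2 (4 μg/ml), in 20 mM KH2PO4 pH 8.5 with 50 nM ^3H-spiked estradiol and 1 mM NADH, 30 min at RT, 1% DMSO. Compound at 1 μM or 0.1 μM; estrone formation by HPLC radioactivity, % inhibition relative to uninhibited conversion.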

Structure (SMILES): CN(CC(C)(C)O)C(=O)CC[C@@H]1c2c[nH]nc2[C@@]2(C)CCC3c4cccc(F)c4CCC3C12 (stereo partly drawn) [Compound 243, 3-((8aS,12S)-3-fluoro-8a-methyl-1,2,6b,7,8,8a,10,12,12a,12b-decahydronaphtho[2′,1′:4,5]indeno[1,2-c]pyrazol-12-yl)-N-(2-hydroxy-2-methylpropyl)-N-methylpropanamide]
- half-life at 1 μM [1]: 15 min
- inhibition at 0.1 µM [2]: 80%
- inhibition at 1 µM [3]: 5%
